Results: US20250134790A1, “ANTIMICROBIAL COMPOSITIONS” (Firmenich SA, priority 2021, published 2025)
Like-named read-outs stand apart in the source and are kept apart here.

System: Escherichia coli ATCC 10536
Assay: Robotic bacteria contact time (BCT) test of perfume ingredients in surfactant bases (EN-1276 based)
Type: cell-based
Settings: contact time 45 seconds; for Log reduction / log reduction at 1 %: surfactant base B, perfume ingredient 1% wt; for log reduction at 1 % / log reduction at 0.5 %: Escherichia coli, ATCC10536, 45 s; for log reduction at 0.5 %: surfactant base A, perfume ingredient 0.5 % wt
Procedure: a. Preparation of Test Samples
Test samples were prepared by mixing perfume ingredients with the surfactant bases and vigorously stirred for 24 hrs. Samples with transparent appearance were selected for antimicrobial testing.
b. Measurement of Antimicrobial Efficacy of Fragrance Materials in Surfactant Systems
Preparation of screening plate and dilution plate: Aliquots (270 μl) of compositions were dispensed into the wells of a 96-well microtiter plate (MTP) along two columns (B1-H1, and B7-H7), and 270 μl of MilliQ water was added to well A1 and A7 as the control samples. This MTP was labelled as the “Screening plate”. In another MTP, labelled as the “Dilution plate”, 270 μL of Dey-Engley (D/E) neutralizing solution was added to column 1 and column 7. 270 μl of tryptone diluent solution was added to columns 2-6 and columns 8-12 of the Dilution MTP by a Hamilton robotic liquid handling station.
BCT test & neutralization & dilution: Bacterial stock (30 μl) was then added to columns 1 of the ‘Screening plate’ and mixed by a Hamilton robotic liquid handling station. After a contact time of 45 seconds, 30 μl of the mixtures in column 1 were transferred into the corresponding wells of column 1 of the ‘Dilution plate’. After neutralizing for 5 minutes in the D/E neutralizing solution, 30 μl of the neutralized mixtures were transferred from column 1 to column 2 of the Dilution MTP and mixed, followed by transferring 30μl of the mixtures from column 2 into column 3. This process was repeated serially diluting the bacteria suspensions across the plate to column 6. Bacterial stock (30 μl) was then added to columns 7 of the ‘Screening plate’ and mixed by a Hamilton robotic liquid handling station. After a contact time of 45 seconds, 30 μl of the mixtures in column 7 were transferred into the corresponding wells of column 7 of the ‘Dilution plate’. After neutralizing for 5 minutes in the D/E neutralizing solution, 30 μl of the mixtures were transferred from column 7 to column 8 of the Dilution MTP and mixed, followed by transferring further 30μl mixtures from column 8 into column 9. This process was repeated serially diluting the bacteria suspensions across the plate to column 12.
Plating: 30 μl volumes from each well in the Dilution MTP were transferred onto four Tryptone Soya Agar (TSA) plates. The TSA plates were allowed to stand for about two hours so that the 30 μl inocula spots could dry and the plates were then inverted and incubated overnight at 37° C. for 24 hours. After incubation, colonies were counted.
Calculating log reduction: Select the dilutions with colony counts, and calculate the viable cell counts (CFU/mL) of mixture in ‘Screening plate’, and log reduction against the control MilliQ sample was calculated.

[1] = sodium cumene sulfonate (SCS) 3.00 % wt
[2] = no SCS (/), read-out: Log reduction
[3] = sodium cumene sulfonate (SCS) 3.00 % wt, read-out: Log reduction
[4] = sodium salicylate 3.00, read-out: Log reduction

Compound | Log reduction (no SCS (/)) | Log reduction [1] | Log reduction (sodium salicylate 3.00) | log reduction at 1 % [2] | log reduction at 1 % [3] | log reduction at 1 % [4] | also measured
CCCCCCCC=O [Octanal, octanal] | Insoluble | Insoluble | Insoluble | – | – | – | –
C=CC(C)(O)CCCC(C)C (centres unmarked) [3,7-dimethyl-1-octen-3-ol] | – | – | – | -0.1 | > 5 | > 5 | –
CC(C)=CCCC(C)CC#N (centres unmarked) [3,7-dimethyl-6-octenenitrile] | – | – | – | 0.1 | > 5 | > 5 | –
CCCC=C1OC(=O)c2ccccc21 [3-butylidene-1-benzo[C] furanone] | – | – | Insoluble | – | – | – | log reduction at 1 % (no SCS (/)): 0.2; log reduction at 1 % [1]: > 5
CCCCCCCC1CCC(=O)O1 (centres unmarked) [5-heptyldihydro-2(3H)-furanone] | – | – | – | – | – | – | log reduction at 0.5 %: 1.3; log reduction at 1 % (no SCS (/)): -0.2; log reduction at 1 % [1]: 4.9; log reduction at 1 % (sodium salicylate 3.00): > 5
CC(C)=CCCC(C)CCO (centres unmarked) [3,7-dimethyl-6-octen-1-ol] | Insoluble | Insoluble | Insoluble | – | – | – | log reduction at 0.5 % (read-out: Log reduction): 2.8
C/C=C\C(C)(O)CCC=C(C)C (centres unmarked) [(2Z)-4,8-dimethyl-2,7-nonadien-4-ol] | – | – | – | -0.1 | > 5 | > 5 | –
cyclopropylmethyl (3Z)-3-hexenoate OR cyclopropylmethyl (3E)-3-hexenoate | 0.1 | >5 | >5 | – | – | – | –
CC(=CC=O)CCC(C)=C(C)C [3,6,7-trimethyl-2,6-octadienal] | – | – | Insoluble | 3.3 | > 5 | – | –
CC(=O)OCCC1CCCCC1 [2-cyclohexylethyl acetate] | – | – | – | 0 | > 5 | > 5 | –
